Test results from paper PMC7083851, “Extended pharmacodynamic responses observed upon PROTAC-mediated degradation of RIPK2” (Communications Biology, 2020).
“And” between values parts separate entries of the source, which are not always exact repeats. Equal entries are not always repeated.

Assays:
RIPK2 = biological target: T1, RIPK2 (Rattus norvegicus, UniProt G3V783); experiment: RIPK2 levels in colon of dosed rats (Western blot); format: in vivo; details: for RIPK2 level in colon (fig 5f): vehicle control 0.0136-0.0240
T1 construct: from tissue; host or cells: terminal colon samples of dosed rats
T1 sequence (G3V783 1-539): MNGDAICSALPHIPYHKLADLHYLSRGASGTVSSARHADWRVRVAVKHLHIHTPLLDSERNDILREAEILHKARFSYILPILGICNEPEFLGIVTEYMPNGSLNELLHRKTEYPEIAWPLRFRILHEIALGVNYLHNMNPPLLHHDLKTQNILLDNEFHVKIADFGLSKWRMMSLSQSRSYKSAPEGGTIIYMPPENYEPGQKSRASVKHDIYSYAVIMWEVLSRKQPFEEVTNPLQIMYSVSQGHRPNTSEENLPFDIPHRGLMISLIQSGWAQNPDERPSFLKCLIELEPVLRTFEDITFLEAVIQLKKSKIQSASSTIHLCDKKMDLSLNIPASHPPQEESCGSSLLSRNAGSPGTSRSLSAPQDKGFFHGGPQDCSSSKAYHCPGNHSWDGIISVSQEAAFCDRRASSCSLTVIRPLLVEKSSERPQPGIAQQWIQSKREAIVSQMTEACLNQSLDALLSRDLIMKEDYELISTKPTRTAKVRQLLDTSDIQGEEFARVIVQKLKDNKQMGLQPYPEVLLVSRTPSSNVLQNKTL
Experimental: Rat PK/PD studies: On arrival, all rats were housed in a plastic solid bottom cage in groups of 2–3 with access to food and water ad libitum and under a 12 h light–dark cycle. Male CD or Wistar Han rats (7–9 weeks old, Charles River UK Ltd.) were randomly allocated to treatment groups upon arrival. Female CD rats (7–8 weeks old on arrival, Charles River Ltd.) were placed into groups using a randomization schedule based on body weight prior to the study start. All animals were acclimatized for a minimum of one week prior to the experiment commencing.
Ex vivo stimulation of rat blood with L18-MDP for PD: PPD blood samples taken prior to PROTAC administration or at fixed timepoints post PROTAC administration through the course of the study, were treated ex vivo with 100 ng/mL L18-MDP (Invivogen) or vehicle (0.1% DMSO) and incubated for 4 h. Following centrifugation, plasma was collected for cytokines analysis as detailed in cytokines assay section. Additionally, RIPK2 levels were determined in PBMCs isolated from blood and where collected, in sampled colon tissue as described in the text.
For in vivo studies, RIPK2:tubulin ratios and cytokine levels from each individual experiment were analysed either using a One-way ANOVA with Dunnet’s post-test or a two way ANOVA using GraphPad Prism 5.0.4 to determine statistical significance with 95% confidence levels.

[1] = test system: spontaneous IL-1β, IL-6, and TNFα release; experiment: Spontaneous cytokine release (IL-1β, IL-6, TNFα) from Crohn's disease patient intestinal biopsies; format: cell-based, human; details: for IL-1b (Ctrl=DMSO = 100) / IL-6 (Ctrl=DMSO = 100) / TNFa (Ctrl=DMSO = 100): individual biopsies, fig 4e
Experimental: Colonic biopsies or tissues were obtained during endoscopy or via surgical resection from Crohn’s Disease (CD) or Ulcerative Colitis (UC) patients (St Bartholomew’s Hospital, London). All patients gave informed written consent. For surgical specimens, the mucosa was dissected away from the submucosa and cut into pieces of ~10–20 mg. […] The supernatants were collected for cytokine measurement as detailed in cytokines assay section while tissues were used to determine RIPK2 levels.
Cytokine measurement assay: Cytokine levels were measured in rat plasma or rat PBMCs cell culture supernatants using rat V-Plex TNFα, in human plasma or human PBMCs cell culture supernatants with either TNFα tissue culture or 7-plex kit. Rat serum and tissues samples from the in vivo L18-MDP acute inflammation model were analyzed using the rat TNFα, Il-6 and IL-8 U-Plex kits. All kits provided by Meso Scale Discovery (MSD). Levels of cytokines spontaneously released from human colon biopsies cell culture supernatants were measured using Human IL-1 beta/IL-1F2 DuoSet ELISA (Bio-techne), Human IL-6 ELISA (Immunotools) and Human TNF-alpha DuoSet ELISA (Bio-techne). All samples were processed accordingly to the manufacturer’s instructions. The MSD plates were analyzed using the MSD sector imager 6000 plate reader and cytokines concentration (pg/ml) was obtained by using the MSD DISCOVERY WORKBENCH software version 4.0.12.1

CN[C@@H](C)C(=O)N[C@H](C(=O)N1C[C@@H](NC(=O)c2cnc(N3CCN(CCCOc4cc5ncnc(Nc6n[nH]c(C)c6C)c5cc4S(=O)(=O)C(C)(C)C)CC3)cn2)C[C@H]1C(=O)Nc1c(F)cccc1F)C(C)(C)C [PROTAC 6]
RIPK2 level in colon (fig 5f) (RIPK2; 0.05 mg/kg, individual rats 1-4): 0.0091 and 0.0088 and 0.0071 and 0.0105 | RIPK2 level in colon (fig 5f) (RIPK2; 0.5 mg/kg, individual rats 5-8): 0.0034 and 0.0025 and 0.0038 and 0.0043 | RIPK2 in terminal colon samples, in words (RIPK2; rat, 0.05 and 0.5 mg/kg QD SC, Western blot): significant degradation of RIPK2 | IC50 ([1]; Homo sapiens, 24 h, read-out: IC50 inhibition of spontaneous cytokine release): 1 to 3 nM | IL-1b (Ctrl=DMSO = 100) ([1]; compound concentration 0.05 nM): 94 and 86 and 97 | IL-6 (Ctrl=DMSO = 100) ([1]; compound concentration 0.05 nM): 105 and 101 and 86 | TNFa (Ctrl=DMSO = 100) ([1]; compound concentration 0.05 nM): 90 and 96 | IL-1b (Ctrl=DMSO = 100) ([1]; compound concentration 0.5 nM): 59 and 61 and 39 and 57 | IL-6 (Ctrl=DMSO = 100) ([1]; compound concentration 0.5 nM): 98 and 80 and 79 and 97 and 84 and 33 | TNFa (Ctrl=DMSO = 100) ([1]; compound concentration 0.5 nM): 87 (2×) and 88 and 52 | IL-1b (Ctrl=DMSO = 100) ([1]; compound concentration 5 nM): 50 and 72 and 71 and 12 and 58 and 31 and 5 and 56 and 44 and 41 (2×) and 49 and 74 and 81 | IL-6 (Ctrl=DMSO = 100) ([1]; compound concentration 5 nM): 56 and 35 and 85 (2×) and 14 (2×) and 49 and 48 and 89 and 101 and 72 and 66 and 70 and 53 | TNFa (Ctrl=DMSO = 100) ([1]; compound concentration 5 nM): 38 and 23 and 69 (2×) and 35 (2×) and 42 and 24 and 87 and 58 and 34 and 11 and 66 and 31 and 41 | IL-1b (Ctrl=DMSO = 100) ([1]; compound concentration 50 nM): 12 (2×) and 26 and 66 and 31 and 32 and 4 and 29 and 9 and 18 and 69 and 5 and 52 and 14 | IL-6 (Ctrl=DMSO = 100) ([1]; compound concentration 50 nM): 35 and 29 and 12 (2×) and 31 (2×) and 16 (2×) and 75 and 44 and 24 and 50 and 63 and 23 and 57 | TNFa (Ctrl=DMSO = 100) ([1]; compound concentration 50 nM): 42 and 16 and 50 (2×) and 37 (2×) and 0 and 30 (2×) and 24 and 78 and 25 and 60 and 34 and 59
